What was measured:
Assay type in all cases: in vivo, ApoE−/− mice
CSF1 = experiment: Aortic mural gene expression, RT-PCR (TLDA); conditions: fold change over ApoE−/− control; aorta, 28 days Ang II infusion
Description: Total RNA was extracted from homogenized aortas using the Qiazol lysis reagent and RNeasy Lipid Tissue Mini kit. DNAse treatment was included in the procedure. RNA concentration was determined utilizing the Quant iT RNA assay kit. Complimentary deoxyribonucleic acid (cDNA) was synthesized from 1 μg RNA using High reverse cDNA transcription kit. Briefly the reaction tubes containing RNA, reverse transcriptase, buffer, RNAse inhibitor, and nuclease free water were incubated at 25° C. for 10 minutes to allow annealing. […] The cDNA samples were cooled at 4° C. and stored at −80° C. until further use.
Real time PCR was performed using a 384-well Taqman low density array (TLDA) card. Each sample specific PCR mix contained 50 ng of total RNA converted to cDNA. The PCR reaction for Taqman assays contained 50 μl Master Mix (Taqman Universal PCR Master Mix,) and 50 ul of cDNA and RNAase free water. Assays were performed to include appropriate controls (no template control). The RT-PCR protocol included an initial step of 50° C. […] Fluorescence data was collected at 60° C. Fluorescence was quantified with ABI PRISM 7900HT Sequence Detection System. To verify amplification of a specific target cDNA, data generated was analyzed using SDS 2.2.3 software (Sequence Detection System Software, Applied Biosystems). […] For relative quantification (RQ), pooled ApoE−/− control was used as the calibrator (with expression equal to 1).

AAA = experiment: Aortic diameter by ultrasonography, ApoE−/−+Ang II AAA model; conditions: pretreatment 1 week before Ang II infusion, followed to 28 days, versus control and doxycycline
Excerpt: The ApoE^−/−+Ang II AAA model is well established and supported by current scientific literature. Mice genetically predisposed to hypercholesterolemia develop aneurysms when treated with angiotensin II. Aneurysms generally develop within the first week after pump implantation and share many important pathologic characteristics with human AAA disease. ApoE−/− mice used in this study were divided into different pretreatment groups: 1) Fluvastatin-MF; 2) Doxycycline-MD; 3) Irbesartan-MI; 4) Telmisartan-MT; 5) Control (water) and fed medicated chow or medicated drinking water 1 week prior to pump implantation. AngII (1000 ng·kg^−1 of body weight·min^−1) was infused subcutaneously via Alzet mini-osmotic pumps for 28 days. All mice were maintained on the medicated chow (MI & MT) or medicated drinking water (MF & MD) treatments which were delivered daily for a total of 28 days following pump implantation. In order to determine the effect of the various treatments on the progressive enlargement of the experimental AAAs the mice were followed with high frequency trans-abdominal ultrasound. Maximum aortic diameter was measured and recorded prior to pump implantation and then at 3, 7, 14, 21, and 28 days. All mice were sacrificed 28 days after pump implantation. Aortae were harvested and subjected to either histological analysis (Elastic Masson trichome, MAC2, CD31 and TUNEL staining) and analysis of mural gene expression. Plasma drug concentrations of experimental compounds were quantified on the day of sacrifice using high performance liquid chromatography (HPLC).

aneurysm = experiment: Aneurysm incidence over time, ApoE−/−+Ang II AAA model; conditions: aneurysm = dissection or more than 50% increase in diameter, versus doxycycline and saline control
Description: (§1) ApoE−/− mice used in this study were divided into different pretreatment groups: 1) Fluvastatin-MF; 2) Doxycycline-MD; 3) Irbesartan-MI; 4) Telmisartan-MT; 5) Control (water) and fed medicated chow or medicated drinking water 1 week prior to pump implantation. AngII (1000 ng·kg^−1 of body weight·min^−1) was infused subcutaneously via Alzet mini-osmotic pumps for 28 days. All mice were maintained on the medicated chow (MI & MT) or medicated drinking water (MF & MD) treatments which were delivered daily for a total of 28 days following pump implantation.
(§2) In order to determine the effect of the various treatments on the progressive enlargement of the experimental AAAs the mice were followed with high frequency trans-abdominal ultrasound. Maximum aortic diameter was measured and recorded prior to pump implantation and then at 3, 7, 14, 21, and 28 days. All mice were sacrificed 28 days after pump implantation. Aortae were harvested and subjected to either histological analysis (Elastic Masson trichome, MAC2, CD31 and TUNEL staining) and analysis of mural gene expression. Plasma drug concentrations of experimental compounds were quantified on the day of sacrifice using high performance liquid chromatography (HPLC).
Aneurysm was defined as either the presence of dissection or more than 50% increase in diameter.

ITGAL = experiment: Aortic mural gene expression, RT-PCR (TLDA); conditions: fold change over ApoE−/− control; aorta, 28 days Ang II infusion
Description: as §1, §2
Total RNA was extracted from homogenized aortas using the Qiazol lysis reagent and RNeasy Lipid Tissue Mini kit. DNAse treatment was included in the procedure. RNA concentration was determined utilizing the Quant iT RNA assay kit. Complimentary deoxyribonucleic acid (cDNA) was synthesized from 1 μg RNA using High reverse cDNA transcription kit. Briefly the reaction tubes containing RNA, reverse transcriptase, buffer, RNAse inhibitor, and nuclease free water were incubated at 25° C. for 10 minutes to allow annealing. Reverse transcription was performed at 37° C. for 120 min, followed by a 5 sec incubation at 85° C. to inactivate the reverse transcriptase enzyme. The cDNA samples were cooled at 4° C. and stored at −80° C. until further use.
Real time PCR was performed using a 384-well Taqman low density array (TLDA) card. Each sample specific PCR mix contained 50 ng of total RNA converted to cDNA. The PCR reaction for Taqman assays contained 50 μl Master Mix (Taqman Universal PCR Master Mix,) and 50 ul of cDNA and RNAase free water. Assays were performed to include appropriate controls (no template control). The RT-PCR protocol included an initial step of 50° C. (2 minutes) […], denaturation by a hot start at 95° C. for 10 min, followed by 40 cycles of a 2 step program (denaturation at 95° C. for 15 secs for primer annealing/extension at 60° C. for 1 min). Fluorescence data was collected at 60° C. Fluorescence was quantified with ABI PRISM 7900HT Sequence Detection System. To verify amplification of a specific target cDNA, data generated was analyzed using SDS 2.2.3 software (Sequence Detection System Software, Applied Biosystems). For all amplification plots, the baseline data were set with the automatic CT function available with SDS 2.2.3 calculating the optimal baseline range and threshold value by using the AutoCT algorithm. According to the manufacturer's instruction, a CT value of ≧39 corresponds to nonspecific amplification marking the limits of detection. For endogenous control GAPDH was normalized to B2M. For relative quantification (RQ), pooled ApoE−/− control was used as the calibrator (with expression equal to 1).

| Compound | CSF1 expression (CSF1) | Inhibition of aneurysm development/growth (aortic diameter) (AAA) | Inhibition of aneurysm development (aneurysm incidence) (aneurysm) | ITGAL expression (ITGAL) | Inhibition of aneurysm development/growth (aortic diameter) (AAA; listed as telmisartan) | Inhibition of aneurysm development (aneurysm incidence) (aneurysm; listed as telmisartan) |
| --- | --- | --- | --- | --- | --- | --- |
| CC(C)n1c(/C=C/C(O)CC(O)CC(=O)O)c(-c2ccc(F)cc2)c2ccccc21 (stereo not drawn) [Fluvastatin] | − (0 to 1 = −) | relative good inhibition of AAA | effective in inhibiting aneurysm development | ++ (1.51 to 3 = ++) |  |  |
| CCCc1nc2c(C)cc(-c3nc4ccccc4n3C)cc2n1Cc1ccc(-c2ccccc2C(=O)O)cc1 [Telmisartan] | − (0 to 1 = −) | effective in inhibiting aneurysm development | inhibited aneurysm development well |  | effective in inhibiting/preventing aneurysm development | effective in inhibiting aneurysm development |

From patent US20120239131A1, “METHODS AND APPARATUS FOR TREATMENT OF ANEURYSMAL TISSUE” (Medtronic Vascular, Inc., priority 2011, published 2012)
